Measurements: the supplement of paper PMC10307832

What was measured:
Experiment in all cases: relative viability (nuclei count vs DMSO), 5 days (fraction); higher = more cells survive
Alisertib + Linsitinib = compound: COc1cc(Nc2ncc3c(n2)-c2ccc(Cl)cc2C(c2c(F)cccc2OC)=NC3)ccc1C(=O)O [Alisertib] + C[C@]1(O)C[C@@H](c2nc(-c3ccc4ccc(-c5ccccc5)nc4c3)c3c(N)nccn32)C1 [Linsitinib] (partner 1 µM)
Procedure, shortened: (§1)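 Relative viability equals treated-well nuclei counts divided by vehicle-well nuclei counts. Counts came from 4× images of lung cancer cell lines grown in 1536-well plates for 5 days after pin-tool dosing on the day after seeding. Dosing used one drug alone or a fixed anchor-drug dose plus five library-drug doses (not always all listed) in √10 steps, and values are medians of duplicate plates.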

Alisertib + Crizotinib = compound: COc1cc(Nc2ncc3c(n2)-c2ccc(Cl)cc2C(c2c(F)cccc2OC)=NC3)ccc1C(=O)O [Alisertib] + C[C@@H](Oc1cc(-c2cnn(C3CCNCC3)c2)cnc1N)c1c(Cl)ccc(F)c1Cl [Crizotinib] (partner 1 µM)
Procedure, shortened: as §1

Alisertib + Tozasertib = compound: COc1cc(Nc2ncc3c(n2)-c2ccc(Cl)cc2C(c2c(F)cccc2OC)=NC3)ccc1C(=O)O [Alisertib] + Cc1cc(Nc2cc(N3CCN(C)CC3)nc(Sc3ccc(NC(=O)C4CC4)cc3)n2)n[nH]1 [Tozasertib] (partner 0.1 µM)
Procedure, shortened: as §1

Alisertib + OSI-027 = compound: COc1cc(Nc2ncc3c(n2)-c2ccc(Cl)cc2C(c2c(F)cccc2OC)=NC3)ccc1C(=O)O [Alisertib] + COc1cccc2cc(-c3nc([C@H]4CC[C@H](C(=O)O)CC4)n4ncnc(N)c34)[nH]c12 [OSI-027] (partner 0.5 µM)
Procedure, shortened: as §1

Cell Line | relative viability (Alisertib + Linsitinib; first compound 0.005 µM) | relative viability (Alisertib + Linsitinib; first compound 0.01581 µM) | relative viability (Alisertib + Linsitinib; first compound 0.05 µM) | relative viability (Alisertib + Linsitinib; first compound 0.1581 µM) | relative viability (Alisertib + Linsitinib; first compound 0.5 µM) | relative viability (Alisertib + Crizotinib; first compound 0.005 µM) | relative viability (Alisertib + Crizotinib; first compound 0.01581 µM) | relative viability (Alisertib + Crizotinib; first compound 0.05 µM) | relative viability (Alisertib + Crizotinib; first compound 0.1581 µM) | relative viability (Alisertib + Crizotinib; first compound 0.5 µM) | relative viability (Alisertib + Tozasertib; first compound 0.005 µM) | relative viability (Alisertib + Tozasertib; first compound 0.01581 µM) | relative viability (Alisertib + Tozasertib; first compound 0.05 µM) | relative viability (Alisertib + Tozasertib; first compound 0.1581 µM) | relative viability (Alisertib + Tozasertib; first compound 0.5 µM) | relative viability (Alisertib + OSI-027; first compound 0.005 µM) | relative viability (Alisertib + OSI-027; first compound 0.01581 µM) | relative viability (Alisertib + OSI-027; first compound 0.05 µM) | relative viability (Alisertib + OSI-027; first compound 0.1581 µM) | relative viability (Alisertib + OSI-027; first compound 0.5 µM)
NCI-H441 | 0.504 | 0.333 | 0.243 | 0.129 | 0.129 | 0.626 | 0.555 | 0.131 | 0.178 | 0.136 | 0.478 | 0.366 | 0.253 | 0.286 | 0.227 | 0.532 | 0.446 | 0.222 | 0.22 | 0.215
NCI-H1793 | 0.811 | 0.923 | 0.373 | 0.276 | 0.197 | – | – | – | – | – | 0.45 | 0.231 | 0.269 | 0.176 | 0.185 | 0.257 | 0.149 | 0.213 | 0.193 | 0.149
NCI-H23 | 0.621 | 0.545 | 0.228 | 0.191 | 0.155 | 0.427 | 0.367 | 0.202 | 0.179 | 0.187 | 0.27 | 0.249 | 0.165 | 0.208 | 0.15 | 0.518 | 0.377 | 0.287 | 0.17 | 0.144
HARA | 1.03 | 0.919 | 0.361 | 0.189 | 0.0844 | 1.05 | 0.796 | 0.277 | 0.169 | 0.135 | 0.103 | 0.0888 | 0.0929 | 0.104 | 0.0887 | 0.409 | 0.423 | 0.369 | 0.113 | 0.0564
NCI-H1792 | 0.546 | 0.372 | 0.177 | 0.076 | 0.0631 | 0.939 | 0.91 | 0.543 | 0.201 | 0.0858 | – | – | – | – | – | 0.665 | 0.622 | 0.399 | 0.257 | 0.178
NCI-H1703 | 0.65 | 0.626 | 0.563 | 0.177 | 0.164 | 0.711 | 0.501 | 0.294 | 0.37 | 0.113 | – | – | – | – | – | – | – | – | – | –
NCI-H2342 | – | – | – | – | – | – | – | – | – | – | 0.623 | 0.424 | 0.335 | 0.377 | 0.351 | 0.529 | 0.643 | 0.589 | 0.468 | 0.383
CAL-12T | 0.741 | 0.603 | 0.187 | 0.157 | 0.162 | 0.613 | 0.232 | 0.142 | 0.166 | 0.109 | 0.333 | 0.28 | 0.202 | 0.199 | 0.178 | 0.488 | 0.277 | 0.137 | 0.165 | 0.118
NCI-H838 | 0.962 | 0.845 | 0.573 | 0.278 | 0.202 | 0.821 | 0.727 | 0.281 | 0.218 | 0.186 | 0.272 | 0.262 | 0.231 | 0.195 | 0.201 | 0.334 | 0.397 | 0.311 | 0.16 | 0.119
NCI-H2085 | 0.876 | 0.85 | 0.516 | 0.389 | 0.281 | 0.757 | 0.693 | 0.33 | 0.391 | 0.388 | 0.723 | 0.669 | 0.526 | 0.476 | 0.394 | 0.591 | 0.746 | 0.469 | 0.222 | 0.235
NCI-H1395 | 1.18 | 1.02 | 0.716 | 0.509 | 0.488 | – | – | – | – | – | 0.725 | 0.708 | 0.488 | 0.478 | 0.391 | 0.521 | 0.605 | 0.527 | 0.415 | 0.356
NCI-H1648 | – | – | – | – | – | – | – | – | – | – | 0.637 | 0.272 | 0.218 | 0.303 | 0.205 | 0.258 | 0.242 | 0.23 | 0.252 | 0.239
NCI-H460 | 0.786 | 0.54 | 0.162 | 0.027 | 0.0144 | 0.847 | 0.731 | 0.0614 | 0.0166 | 0.0164 | 0.477 | 0.428 | 0.0521 | 0.0419 | 0.0268 | 0.618 | 0.578 | 0.218 | 0.0256 | 0.0214
A549 | 0.556 | 0.414 | 0.139 | 0.0745 | 0.0473 | 0.611 | 0.197 | 0.0682 | 0.0571 | 0.0624 | – | – | – | – | – | – | – | – | – | –
IA-LM | 0.478 | 0.659 | 0.324 | 0.223 | 0.0931 | 0.831 | 0.608 | 0.485 | 0.256 | 0.104 | – | – | – | – | – | – | – | – | – | –
EKVX | 0.942 | 0.831 | 0.344 | 0.211 | 0.183 | 0.796 | 0.807 | 0.313 | 0.182 | 0.219 | 0.379 | 0.305 | 0.205 | 0.141 | 0.151 | 0.654 | 0.631 | 0.251 | 0.158 | 0.136
